Data set [1] can be described thus: Partition coefficient of HMPAO and MRP20 (octanol/buffer, absorbance). The format is physicochemical. How it is done: 4. Measurement of Partition Coefficient of HMPAO and MRP20
20 μl of HMPAO or MRP20 solutions adjusted to 8 mM with a physiology saline solution was added to 500 μl of octanol and 500 μl of a HEPES buffer solution (pH 7.0) or Na2HPO4—NaOH buffer solution (pH 12.0). The mixture was allowed to stand still after stirring. Absorption of the octanol layer and the aqueous layer was measured, and the lipophilic properties of the two complexes were compared.

Data set [2] is described as follows: Stability of 99mTc complex in an aqueous solution (radiochemical purity over time). The format is physicochemical. The following applies: for radiochemical purity: after purification by RP-HPLC, after 24 hours. As to the method:
5. Stability of ^99mTc Complex in an Aqueous Solution
In order to compare the stability of ^99mTc-HMPAO and ^99mTc-MRP20 in an aqueous solution, ^99mTc-HMPAO solution was diluted with 50 mM ammonia buffer solution (pH 9.4) into the final ligand concentration of 1 mM. The mixture was incubated in a water bath of 25° C. or 37° C., and radiochemical purity was determined by the above-mentioned analyzing methods after predetermined time (0.5, 2, 4, 8, or 24 hours). ^99mTc-MRP20 aqueous solution was diluted with 50 mM phosphate buffer solution (pH 8.3), and the similar operations were effected.
For the purpose of examining the effect of free ligands on the stability, ^99mTc complex solution was purified by RP-HPLC, and the purified ^99mTc complex solution eluted in 100% acetonitrile was mixed and diluted in the ratio of 1:1 with a buffer solution, and changes over time of the radiochemical purity of the complex was examined similarly as for the complex before purification.

For the molecule `C/C(=N\O)C(C)NCC(C)(C)CNC(C)/C(C)=N/O` (centres unmarked) [HMPAO, hexamethyl propyleneamine oxime, reference compound], in data set [1] (octanol / buffer (pH 7.0 or pH 12.0)), the “Absorbance transferred to the octanol layer” value was “below the detection limit”.

Consider `CC(=O)C=C(C)NCCNCc1ccc[nH]1` [MRP20, N-[2-(1H-pyrrolylmethyl)]-N′-(4-penten-3-one-2)-ethane-1,2-diamine], for which the “ratio of absorbances in the octanol layer and the water layer” value in data set [1] (pH of the buffer 7.0) was 2.1±0.7; in data set [1] (pH of the buffer 12.0), 5.0±1.6.

In data set [2] (25° C.), `C/C(=N\[O-])[C@@H](C)[N-]CC(C)(C)C[N-][C@H](C)/C(C)=N/O.[O]=[99Tc+3]` [^99mTc-HMPAO, ^99mTc-hexamethyl propyleneamine oxime, reference compound] registered a radiochemical purity of 59%. In data set [2] (unpurified complex, 30 minutes after complex formation), the “radiochemical purity remaining (decomposed to)” value is recorded as “about 40%”.

For the molecule “^99mTc-N-[2-(1H-pyrrolylmethyl)]-N′-(4-penten-3-on-2)-ethane-1,2-diamine [^99mTc-MRP20]”, in data set [2] (25° C.), the radiochemical purity is 6%. For the same molecule, the “radiochemical purity remaining (decomposed to)” value in data set [2] (unpurified complex, 25° C., 4 hours after complex formation) is given as “about 40%”. For the same molecule, the radiochemical purity retained entry in data set [2] (unpurified complex, 2 hours after complex formation) was “about 70%”.

For the origin of these results see patent publication US7354567B2, “Method of encapsulating metal complex within liposomes” (Bio Med Core Incorporation, priority 2002, dated 2008).
